From patent US8193235B2, “Compositions and methods for establishing and maintaining stem cells in an undifferentiated state” (University of Kansas, priority 2009, dated 2012)

Tests used:
E14 ES cells [1] = experiment: ES cell culture in the absence of LIF (undifferentiated state, marker expression); type: cell-based, mouse; details: mouse ES cells, without LIF
Description: (§1) E14 ES Cell Cultures. Cells were grown in ES-IMDM media (Lonza, Walkersville, Md.) in a feeder-free condition. ES-IMDM was supplemented with 15% serum, 10^5 U/100 ml of LIF (ESGRO, Millipore, Calif.) and 0.0124% monothioglycerol (MTG; Sigma Aldrich). Cells were grown for 3-5 days with change of medium every day. For inducing differentiation in monolayer culture and to determine the effect of Gö6983 in preventing differentiation, E14 cells were cultured on gelatin-coated plastics for 8 days without LIF. Details of experiments performed at clonal-density are described herein. To maintain E14 cells with Gö6983, serum supplemented ES-IMDM was used in the presence of 5 μM Gö6983 and was passed after every 3-5 days. For all assays involving elucidation of different signaling mechanism responsible for maintenance of pluripotency, cells from a ˜70% confluent ES culture plate were washed two times with 1× phosphate-buffered saline (PBS), trypsinized and plated on a 6-well tissue culture plate and treated with or without LIF or Gö6983 or different inhibitors for ˜10 hours followed by preparation of protein lysates and RNA. The PKCζ knocked-down E14 cells that were generated in this study were maintained in serum supplemented ES-IMDM on gelatin-coated plates in the absence of Gö6983 or LIF or any other inhibitor and passed after 3-5 days. For the experiments herein, cells were continuously cultured at least for 5 consecutive passages (>18 days) on gelatin-coated plates without significant differentiation.
Quantitative RT-PCR Analysis. RNA was extracted from different cell samples with TRIZOL reagent (Invitrogen). cDNA was prepared by annealing RNA (1 μg) with 250 ng of a 5:1 mixture of random and oligo(dT) primers heated at 68° C. for 10 minutes. This was followed by incubation with Moloney murine leukemia virus reverse transcriptase (50 units) (Invitrogen, Carlsbad, Calif.) combined with 10 mM DTT, RNasin (PROMEGA, Madison, Wis.), and 0.5 mM dNTPs at 42° C. for 1 hour. Reactions were diluted to a final volume of 100 μl and heat inactivated at 97° C. for 5 minutes. Twenty μl PCR reactions contained 2 μl cDNA, 10 μl SYBR Green Master Mix (Applied Biosystems, Foster City, Calif.) and corresponding primer sets. Relative expression levels were determined from a standard curve of serial dilutions of proliferating ES cell cDNA samples and were normalized to the expression of glyceraldehyde-3-phosphate dehydrogenase (GAPDH). At least three independent experiments were done for each set of data.
Immunostaining. Immunostaining of Oct4, and Nanog expression was performed using standard protocols. Briefly, ES cells were fixed in 4% paraformaldehyde/4% sucrose, permeabilized with 0.1% TRITON X 100 (Sigma). Cells were blocked by adding 1% fish gelatin (Sigma, St. Louis, Mo.) and incubated overnight at 4° C. with 200 μl of primary antibodies. Fluorescent-conjugated secondary antibodies (ALEXA FLUOR 488, and ALEXA FLUOR 568, Molecular Probes, Invitrogen) were used at 1:250 dilutions to visualize cells. Images were captured using a LEICA fluorescence microscope.

PKC β = tested on: PKC β; set-up: key: X^1: PKC β1; X^2: PKC β2; details: X = isoform inhibited; superscript 1 PKC β1, 2 PKC β2; cited from earlier work
c-Myc = experiment: GSK-3β-mediated phosphorylation of c-Myc at T58; type: cell-based, mouse; details: added in Gö6983 culture condition
ERK1/2 = ERK1/2 phosphorylation in ES cells; type: cell-based, mouse; details: combination of Gö6983 and PD0325901
Description: as §1, with “For the experiments herein, cells were continuously cultured at least for 5 consecutive passages (>18 days) on gelatin-coated plates without significant differentiation.” left out

p90Rsk1 (Rsk1) = experiment: Phosphorylation of p90Rsk1; type: cell-based, mouse; details: added to Gö6983-treated cells
Description: Western Blot Analysis. Whole cell lysates were prepared in SDS-gel loading buffer and resolved by 10% PAGE. The antibodies used for this study included β-actin Clone AC-15 from Sigma; p-STAT3 (Tyr705), p-p44/42 MAPK (tyr202/tyr204), p44/42 MAPK, GSK3β, Phospho Akt (Ser473), Akt, p-NFκβ p65 (Ser536), c-Myc, p-c-Myc (Thr58/Ser62), p-p90RSK (Thr359/Ser363), RSK1, Suz12 (D39F6), and Ezh2 (AC22) from Cell Signaling Technology; STAT3 (C-20), Oct-4 (C-10), Nanog (M-149), PKC α (C-20), PKC βI (C-16), PKC βII (C-18), PKC γ (C-19), PKC δ (C-20), PKC ζ (c-20), p-PKC ζ (Thr 410)-R, p-NFκβ p65 (ser311), and RelA (p65) from Santa Cruz Biotechnology; p-LGL1/LGL2 (S650/S654), SSEA4and H3K4Me3 from Abcam; LGL2 (M06), clone 4G2 from Abnova; β-Catenin from BD Transduction Laboratories, and H3K27Me3 and H3K9Me3 from Millipore.

E14 ES cells [2] = experiment: ES cell differentiation on collagen IV and with retinoic acid; type: cell-based, mouse; details: absence of LIF
Source text: ES Cell Differentiation on Collagen-IV and With Retinoic Acid. To differentiate ES cells in monolayer culture on collagen IV, around 3×10^4 cells per well were transferred to collagen IV-coated 6-well plates (BD Biosciences, Franklin Lakes, N.J.) cultured for 5 days in ES differentiation medium containing DMEM (Invitrogen), 15% FBS (selected for endothelial differentiation, Stem Cell Technologies, Vancouver, BC), sodium pyruvate and L-glutamine with or without LIF and Gö6983, and were recovered by cell dissociation buffer (BD Biosciences, Franklin Lakes, N.J.). For culturing multiple passages with Gö6983 on collagen-IV, the recovered cells were again plated at a density of ˜3×10^4 cells per well and cultured again for 5 days. […] For RA-induced differentiation on monolayer culture, ES cells were treated with all-trans-retinoic acid (Sigma, St. Louis, Mo.) in ethanol at a concentration of 1 μM with or without LIF and Gö6983 for 6 days followed by study of expression of pluripotency markers (by immunofluorescence or western blot or RT-PCR analysis).

mESCs = experiment: Gö6983-mediated inhibition of mESC differentiation in presence of pathway inhibitors; type: cell-based, mouse; details: added to Gö6983 culture
Description: Inhibitors. Gö6983 was purchased from three different companies (Sigma, St. Louis, Mo.; EMD Chemicals Inc.; and Tocris Biosciences) for validation. In all experiments except the concentration profile, Gö6983 was used at 5 μM final concentration. […] Rottlerin (0.1-5 μM), and RO-318425 (0.1-5 μM) were purchased from EMD Chemicals. Jak Inhibitor I (10 μM), PD0325901 (1 μM) and AKT inhibitor IX (10 μM) were from Calbiochem and CHIR99021 (3 μM) was purchased from Stemgent.
E14 ES Cell Cultures. Cells were grown in ES-IMDM media (Lonza, Walkersville, Md.) in a feeder-free condition. ES-IMDM was supplemented with 15% serum, 10^5 U/100 ml of LIF (ESGRO, Millipore, Calif.) and 0.0124% monothioglycerol (MTG; Sigma Aldrich). Cells were grown for 3-5 days with change of medium every day. For inducing differentiation in monolayer culture and to determine the effect of Gö6983 in preventing differentiation, E14 cells were cultured on gelatin-coated plastics for 8 days without LIF. Details of experiments performed at clonal-density are described herein. To maintain E14 cells with Gö6983, serum supplemented ES-IMDM was used in the presence of 5 μM Gö6983 and was passed after every 3-5 days. […]

Akt = Akt phosphorylation in mESCs; type: cell-based, mouse
Description: as §1, with “For the experiments herein, cells were continuously cultured at least for 5 consecutive passages (>18 days) on gelatin-coated plates without significant differentiation.” left out

Compound: CN(C)CCCn1cc(C2=C(c3c[nH]c4ccccc34)C(=O)NC2=O)c2ccccc21 [Bisindolylmaleimide I]
- ES cell differentiation in the absence of LIF (E14 ES cells [1]): able to inhibit ES cell differentiation, albeit at a lower efficiency than Gö6983
- Isoform Specificity β (PKC β): X^1

Compound: Cc1c[nH]c(-c2cnc(NCCNc3ccc(C#N)cn3)nc2-c2ccc(Cl)cc2Cl)n1 [CHIR99021]
- c-Myc phosphorylation (c-Myc): abolished

Compound: Cn1c2ccccc2c2c3c(c4c5ccccc5n(CCC#N)c4c21)CNC3=O [Gö6976]
- ES cell differentiation in the absence of LIF (E14 ES cells [1]): could not prevent differentiation
- Isoform Specificity β (PKC β): X^2

Compound: O=C(NOC[C@H](O)CO)c1ccc(F)c(F)c1Nc1ccc(I)cc1F [PD0325901]
- ERK1/2 phosphorylation (ERK1/2): almost completely inhibited
- Rsk1 phosphorylation (p90Rsk1 (Rsk1)): abolished

Compound: Cn1cc(C2=C(c3c4n(c5ccccc35)CCC(CN)C4)C(=O)NC2=O)c2ccccc21 (stereo not drawn) [Ro-31-8425]
- ES cell differentiation in the absence of LIF (E14 ES cells [1]): could not prevent differentiation

Compound: CC(=O)c1c(O)c(C)c(O)c(Cc2c(O)c3c(c(C(=O)/C=C/c4ccccc4)c2O)OC(C)(C)C=C3)c1O [Rottlerin]
- ES cell differentiation in the absence of LIF (E14 ES cells [1]): could not prevent differentiation

Compound: N#CC(=C(/N)Sc1ccccc1N)/C(C#N)=C(/N)Sc1ccccc1N [U0216]
- differentiation of ES cells on collagen IV (E14 ES cells [2]): failed to block differentiation

Compound: Jak-Inhibitor-I
- effect of added inhibitor on Gö6983-mediated inhibition of mESC differentiation / maintenance of self-renewal (mESCs): ineffective

Compound: LIF: cytokine leukemia inhibitory factor, activates STAT3
- Akt phosphorylation (Akt): induced
